Data as given in article PMC7997578, “Design, Synthesis, Dynamic Docking, Biochemical Characterization, and in Vivo Pharmacokinetics Studies of Novel Topoisomerase II Poisons with Promising Antiproliferative Activity” (Journal of Medicinal Chemistry, 2020).
Converted amounts (≈) assume the structure as drawn. Where two headings read alike, the source gives them in different places.

Experiments:
HeLa cells [1] = assay: cell viability MTT assay, HeLa; format: cell-based, human; settings: Homo sapiens, HeLa, HeLa cervical cancer cells, mean ± SD of two experiments, read-out: HeLa antiproliferative activity IC50
Protocol: (§1) The antiproliferative activity of all compounds was evaluated in (i) DU145, an androgen-independent prostate cancer cell line; (ii) HeLa, a cervical cancer cell line; and (iii) A549, a lung adenocarcinoma cell line (Table 1). […] Undoubtedly, this preliminary cytotoxicity data will need further characterization, also in relation to the in vitro activity of these compounds.
(§2) Human cancer cell lines A549 (lung adenocarcinoma, ATCC CCL-185), DU-145 (androgen-independent prostate cancer, ATCC HTB-81), and HeLa (cervical carcinoma, ATCC CCL-2) were obtained from ATCC. Cells were routinely grown in minimal essential medium containing Eagle’s salts and L-glutamine supplemented with 10% heat-inactivated FBS in a humidified atmosphere of 5% CO2 at 37 °C. To assess the antiproliferative activity of the compounds, cells were seeded at a density of 2500 cells/well (HeLa) or 5000 cells/well (A549, DU-145) in 96-well plates, and cell viability was measured using the MTT assay as described previously.[39] Values are reported as the mean ± SD of two independent experiments.

[2] = aqueous kinetic solubility; format: physicochemical; settings: PBS, pH 7.4, PBS pH 7.4, target 250 µM, 2.5% DMSO, 25°C
Protocol: 1. In vitro m etabolic stabili ty
In vitro microsomial stability. 10mM DMSO stock solution of test compound was pre-incubated at 37 °C for 15min with mouse liver microsomes added 0.1M Tris-HCl buffer (pH 7.4). The final concentration was 4.6µM. After pre -incubation, the co-factors (NADPH, G6P, G6PDH and MgCl2 pre-dissolved in 0.1M Tris-HCl) were added to the incubation mixture and the incubation was continued at 37 °C for 1h. At each time point (0, 5, 15, 30, 60min), 30µL of incubation mixture was diluted with 200µL cold CH 3CN spiked with 200n M of internal standard, followed by centrifugation at 3500g for 15min. The supernatant was further diluted with H2O (1:1) for analysis. The concentration of test compound was quantified by LC/MS-MS on a Waters ACQUITY UPLC/M S TQD system consisting of a TQD (Triple Quadrupole Detector) Mass Spectrometer equipped with an Electrospray Ionization interface. The analyses were run on an ACQUITY UPLC BEH C18 (50x2.1mmID, particle size 1.7µm) with a VanGuard BEH C18 pre -column (5x2.1mmID, particle size 1.7µm) at 40°C, using 0.1% HCOOH in H 2O (A) and 0.1% HCOOH in CH 3CN (B) as mobile phase. Electrospray ionization (ESI) was app lied in positive mode . The percentage of test compound remaining at each time point relative to t=0 was calculated. The half -lives (t½) were determined by an one-phase decay equation using a non -linear regression of compound concentration versus time.
In vitro Plasma Stability. 10mM DMSO stock solution of test compound was diluted 50 -fold with DMSO-H2O (1:1) and incubated at 37 °C for 2 h with mouse plasma added 5% DMSO (pre-heated at 37 °C for 10 min). The final concentration was 2µM. At each time point (0, 5, 15, 30, 60, 120min), 50 µL of incubation mixture was diluted with 200µL cold CH3CN spiked with 200nM of internal standard, followed by centrifugation at 3500g for 20min. The supernatant was further diluted with H2O (1:1) for analysis. The concentration of test compound was quantified by LC/MS-MS on a Waters ACQUITY UPLC/MS TQD system consisting of a TQD (Triple Quadrupole Detector) Mass Spectrometer equipped with an Electrospray Ionization interface. The analyses were run on an ACQUITY UPLC BEH C18 (50x2.1mmID, particle size 1.7µm) with a VanGuard BEH C18 pre - column (5x2.1mmID, particle size 1.7µm) at 40°C, using 0.1% HCOOH in H2O (A) and 0.1% HCOOH in CH3CN (B) as mobile phase. Electrospray ionization (ESI) was applied in positive mode.
The response factors, calculated on the basis of the internal standard peak area, were plotted over time. When possible, response vs. time profiles were fitted with Prism (GraphPad Software, Inc., USA) to estimate compounds half-life in plasma.
2. Aqueous ki netic solu bili ty
The aqueous kinetic solubility was determined from a 10mM DMSO stock solution of test compound in Phosphate Buffered Saline (PBS) at pH 7.4. The study was performed by incubation of an aliquot of 10mM DMSO stock solution in PBS (pH 7.4) at a target concentration of 250µM resulting in a final concentration of 2.5% DMSO. The incubation was carried out under shaking at 25°C for 24h followed by centrifugation at 21.100g for 30min. The supernatant was analyzed by UPLC/MS for the quantification of dissolved compound by UV at a specific wavelength (215nm).
The analyses were performed on a Waters ACQUITY UPLC/MS SQD system consisting of a SQD (Single Quadrupole Detector) Mass Spectrometer equipped with Electrospray Ionization interface.
The analyses were run on an ACQUITY UPLC BEH C18 column (50x2.1mmID, particle size 1.7µm) with a VanGuard BEH C18 pre-column (5x2.1mmID, particle size 1.7µm), using 10mM NH4OAc in H2O at pH 5 adjusted with AcOH (A) and 10mM NH4OAc in MeCN-H2O (95:5) at pH 5 (B) as […]

DU145 cells [3] = assay: cell viability MTT assay, DU145; format: cell-based, human; settings: Homo sapiens, DU-145, DU145 prostate cancer cells, mean ± SD of two experiments, read-out: DU145 antiproliferative activity IC50
Protocol: as §1, §2

[4] = target: T1, topoII/DNA cleavage complex (Homo sapiens, UniProt P11388); assay: topoisomerase II cleavage complex assay; format: biochemical; settings: 200 μM compound, 1 U topoII, plasmid DNA
T1 construct: purchased Inspiralis
T1 sequence (P11388 whole entry, one chain of several): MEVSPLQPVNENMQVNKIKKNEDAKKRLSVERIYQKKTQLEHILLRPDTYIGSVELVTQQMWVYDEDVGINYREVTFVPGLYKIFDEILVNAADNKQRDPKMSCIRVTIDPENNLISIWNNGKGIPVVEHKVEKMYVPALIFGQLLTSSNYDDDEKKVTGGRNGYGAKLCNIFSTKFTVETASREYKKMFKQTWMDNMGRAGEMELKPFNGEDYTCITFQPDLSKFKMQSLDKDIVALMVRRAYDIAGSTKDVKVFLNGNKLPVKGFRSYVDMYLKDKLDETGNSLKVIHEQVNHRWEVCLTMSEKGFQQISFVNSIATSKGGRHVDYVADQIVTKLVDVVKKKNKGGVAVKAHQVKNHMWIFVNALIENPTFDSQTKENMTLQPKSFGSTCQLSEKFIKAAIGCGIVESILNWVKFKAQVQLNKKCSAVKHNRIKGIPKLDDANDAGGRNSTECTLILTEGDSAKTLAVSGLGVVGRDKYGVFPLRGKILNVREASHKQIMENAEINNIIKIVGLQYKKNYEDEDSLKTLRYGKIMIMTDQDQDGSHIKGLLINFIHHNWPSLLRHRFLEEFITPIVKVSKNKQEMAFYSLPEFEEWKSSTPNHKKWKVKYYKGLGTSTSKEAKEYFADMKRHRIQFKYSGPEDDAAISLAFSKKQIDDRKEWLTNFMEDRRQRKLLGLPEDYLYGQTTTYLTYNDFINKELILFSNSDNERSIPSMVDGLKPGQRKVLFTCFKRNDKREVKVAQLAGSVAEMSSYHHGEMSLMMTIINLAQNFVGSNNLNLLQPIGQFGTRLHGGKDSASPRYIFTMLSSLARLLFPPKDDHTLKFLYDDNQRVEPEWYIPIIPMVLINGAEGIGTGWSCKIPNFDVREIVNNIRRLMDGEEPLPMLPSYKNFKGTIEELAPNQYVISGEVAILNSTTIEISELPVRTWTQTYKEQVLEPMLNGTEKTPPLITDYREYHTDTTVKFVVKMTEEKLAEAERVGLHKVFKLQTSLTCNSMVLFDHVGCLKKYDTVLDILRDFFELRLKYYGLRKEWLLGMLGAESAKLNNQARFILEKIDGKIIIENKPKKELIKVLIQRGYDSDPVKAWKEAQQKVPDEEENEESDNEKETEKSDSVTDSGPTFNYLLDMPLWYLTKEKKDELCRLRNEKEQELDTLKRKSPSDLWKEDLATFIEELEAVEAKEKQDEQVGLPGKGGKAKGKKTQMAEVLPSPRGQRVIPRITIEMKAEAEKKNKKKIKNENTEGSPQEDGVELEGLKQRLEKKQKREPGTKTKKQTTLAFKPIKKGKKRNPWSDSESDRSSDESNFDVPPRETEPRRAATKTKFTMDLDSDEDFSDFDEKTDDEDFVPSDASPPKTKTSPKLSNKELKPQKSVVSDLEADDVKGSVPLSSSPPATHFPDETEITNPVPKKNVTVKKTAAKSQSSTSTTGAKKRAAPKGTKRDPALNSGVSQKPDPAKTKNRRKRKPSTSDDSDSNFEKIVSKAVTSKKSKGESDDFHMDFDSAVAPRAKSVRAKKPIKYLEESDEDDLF
Protocol: Figure 2 Poison activity of the hybrid compounds. Agarose gel electrophoresis of plasmid DNA incubated in the absence (no enzyme) or presence of 1 U of topoII containing either 1% DMSO as control vehicle (no enzyme and topoII lanes) or 200 μM compound. Labels are shown above each lane. Numbers at the bottom correspond to the normalized intensity of the linear form (FIII). Plasmid forms are indicated by the arrow-points on the right: supercoiled (FI), nicked (FII), and linear (FIII).
Poison activity of the compounds was evaluated using a cleavage complex assay (Inspiralis) as described previously.[60] Compounds were tested at a fixed concentration of 200 μM in the presence of 1 U of topoisomerase II and 500 ng of […] plasmid at 37 °C for 6 min. Final DMSO concentration in the assay was 1%. Reaction products were subjected to electrophoresis in a 1% agarose gel, stained with SYBR Safe DNA stain, and DNA bands were visualized and quantified as described above.

human topoIIα = target: T2, human topoIIα (Homo sapiens, UniProt P11388); assay: topoII decatenation assay (Inspiralis); format: biochemical; settings: human topoIIα decatenation assay; mean ± SD of two independent experiments; read-out: IC50
T2 construct: purchased Inspiralis
T2 sequence (P11388 whole entry): as the sequence (P11388 whole entry, one chain of several) above
Protocol: We measured the inhibitor activity of our new compounds against human topoIIα, using a topoII decatenation assay (Table 1).
The activity of topoIIα was measured using a decatenation assay (Inspiralis) following the manufacturer’s instructions. Compounds were dissolved in DMSO and used at a concentration ranging from 200 to 1 μM. Final DMSO concentration in the assay was ≤1%. Reaction mixtures were incubated for 30 min at 37 °C and terminated with STEB buffer (40% (w/v) sucrose, 100 mM Tris-HCl, pH 8, 1 mM EDTA, 0.5 mg/mL bromophenol blue). Reaction products were resolved by electrophoresis in 1% agarose gels containing SYBR Safe DNA stain (Invitrogen), scanned, and quantified using the ChemiDoc system (BioRad). IC50 values were obtained with GraphPad Prism software (version 5.03) using the band intensities of the dose–response gels. Values are reported as the mean ± SD of two independent experiments.

A549 cells [5] = assay: cell viability MTT assay, A549; format: cell-based, human; settings: Homo sapiens, A549, A549 lung adenocarcinoma cells, mean ± SD of two experiments, read-out: A549 antiproliferative activity IC50
Protocol: as §1, §2

human topoII = system: human topoII; design: method as in PMID 29077404; settings: earlier values of the same authors; read-out: IC50 topoII blocker; cited from earlier work
A549 cells [6] = system: A549 cells; design: method as in PMID 29077404; settings: etoposide and merbarone measured in ref 39, read-out: A549 antiproliferative activity IC50; cited from earlier work
DU145 cells [7] = system: DU145 cells; design: method as in PMID 29077404; settings: etoposide and merbarone measured in ref 39, read-out: DU145 antiproliferative activity IC50; cited from earlier work
HeLa cells [8] = system: HeLa cells; design: method as in PMID 29077404; settings: etoposide and merbarone measured in ref 39, read-out: HeLa antiproliferative activity IC50; cited from earlier work

Q: Which IC50 (HeLa cells [1]) does the source give for `O=C(Nc1cccc(OC(F)F)c1)c1c(O)n(-c2ccccc2)c(=S)n(-c2ccccc2)c1=O` [3g, N-(3-(Difluoromethoxy)phenyl)-6-hydroxy-4-oxo-1,3-diphenyl-2-thioxo-1,2,3,4-tetrahydropyrimidine-5-carboxamide] here?
A: The IC50 was 6.4 ± 0.5 µM.

Q: What about the solubility kinetic at 24 h [2] of the same compound?
A: The solubility kinetic at 24 h was over 200 µM.

Q: And the IC50 (DU145 cells [3])?
A: Its IC50 is 6.5 ± 0.9 µM.

Q: What about the “mode of action in cleavage complex formation assay” value [4] of the same compound?
A: Its value is “confirmed to be poisons”.

Q: And the IC50 (human topoIIα)?
A: The IC50 was 10.2 ± 1.9 µM.

Q: What about the IC50 (A549 cells [5]) of the same compound?
A: The IC50 was 4.8 ± 0.4 µM.

Q: What does the source list for `O=C(Nc1cccc(C(F)F)c1)c1c(O)n(-c2ccccc2)c(=S)n(-c2ccccc2)c1=O` [3i, N-(3-(Difluoromethyl)phenyl)-6-hydroxy-4-oxo-1,3-diphenyl-2-thioxo-1,2,3,4-tetrahydropyrimidine-5-carboxamide]?
A: IC50 (HeLa cells [1]): 4.9 ± 1.4 µM; solubility kinetic at 24 h [2]: > 200 µM; IC50 (DU145 cells [3]): 7.8 ± 0.2 µM; mode of action in cleavage complex formation assay [4]: confirmed to be poisons; IC50 (human topoIIα): 11.4 ± 2.4 µM; IC50 (A549 cells [5]): 4.4 ± 0.2 µM

Q: What does the source list for `COc1cccc(NC(=O)c2c(O)n(-c3ccccc3)c(=S)n(-c3ccccc3)c2=O)c1` [ARN16267]?
A: IC50 (human topoII): 30 ± 6 µM; IC50 (HeLa cells [1]): 5.5 ± 1.3 µM; solubility kinetic at 24 h [2]: 236 µM (≈ 105 µg/mL); IC50 (DU145 cells [3]): 7.6 ± 0.8 µM; IC50 (human topoIIα): 16.1 ± 2.4 µM; IC50 (A549 cells [5]): 4.7 ± 0.3 µM

Q: Which results are given for `COc1cc([C@@H]2c3cc4c(cc3[C@@H](O[C@@H]3O[C@@H]5CO[C@@H](C)O[C@H]5[C@H](O)[C@H]3O)[C@H]3COC(=O)[C@H]23)OCO4)cc(OC)c1O` [etoposide]?
A: IC50 (human topoII): […]; IC50 (A549 cells [6]): 1.3 ± 0.1 µM; IC50 (DU145 cells [7]): 1 ± 0.8 µM; IC50 (HeLa cells [8]): 2.4 ± 0.9 µM

Q: For `O=C1NC(=S)NC(=O)C1C(=O)Nc1ccccc1` [merbarone, 6-hydroxy-4-oxo-N-phenyl-2-thioxo-1H-pyrimidine-5-carboxamide], which IC50 (human topoII) is on record?
A: The IC50 was 120 ± 12 µM.

Q: And the IC50 (DU145 cells [7])?
A: The IC50 was 18.9 ± 2 µM.

Q: And the IC50 (HeLa cells [8])?
A: The IC50 was 62.3 ± 6.4 µM.

Q: What about the IC50 (human topoIIα) of the same compound?
A: The IC50 was 26 ± 4.7 µM.
